This note sets out measurements from patent US10787446B2 (GENENTECH, INC., priority 2015, dated 2020).

T1 sequence (Q15858 whole entry): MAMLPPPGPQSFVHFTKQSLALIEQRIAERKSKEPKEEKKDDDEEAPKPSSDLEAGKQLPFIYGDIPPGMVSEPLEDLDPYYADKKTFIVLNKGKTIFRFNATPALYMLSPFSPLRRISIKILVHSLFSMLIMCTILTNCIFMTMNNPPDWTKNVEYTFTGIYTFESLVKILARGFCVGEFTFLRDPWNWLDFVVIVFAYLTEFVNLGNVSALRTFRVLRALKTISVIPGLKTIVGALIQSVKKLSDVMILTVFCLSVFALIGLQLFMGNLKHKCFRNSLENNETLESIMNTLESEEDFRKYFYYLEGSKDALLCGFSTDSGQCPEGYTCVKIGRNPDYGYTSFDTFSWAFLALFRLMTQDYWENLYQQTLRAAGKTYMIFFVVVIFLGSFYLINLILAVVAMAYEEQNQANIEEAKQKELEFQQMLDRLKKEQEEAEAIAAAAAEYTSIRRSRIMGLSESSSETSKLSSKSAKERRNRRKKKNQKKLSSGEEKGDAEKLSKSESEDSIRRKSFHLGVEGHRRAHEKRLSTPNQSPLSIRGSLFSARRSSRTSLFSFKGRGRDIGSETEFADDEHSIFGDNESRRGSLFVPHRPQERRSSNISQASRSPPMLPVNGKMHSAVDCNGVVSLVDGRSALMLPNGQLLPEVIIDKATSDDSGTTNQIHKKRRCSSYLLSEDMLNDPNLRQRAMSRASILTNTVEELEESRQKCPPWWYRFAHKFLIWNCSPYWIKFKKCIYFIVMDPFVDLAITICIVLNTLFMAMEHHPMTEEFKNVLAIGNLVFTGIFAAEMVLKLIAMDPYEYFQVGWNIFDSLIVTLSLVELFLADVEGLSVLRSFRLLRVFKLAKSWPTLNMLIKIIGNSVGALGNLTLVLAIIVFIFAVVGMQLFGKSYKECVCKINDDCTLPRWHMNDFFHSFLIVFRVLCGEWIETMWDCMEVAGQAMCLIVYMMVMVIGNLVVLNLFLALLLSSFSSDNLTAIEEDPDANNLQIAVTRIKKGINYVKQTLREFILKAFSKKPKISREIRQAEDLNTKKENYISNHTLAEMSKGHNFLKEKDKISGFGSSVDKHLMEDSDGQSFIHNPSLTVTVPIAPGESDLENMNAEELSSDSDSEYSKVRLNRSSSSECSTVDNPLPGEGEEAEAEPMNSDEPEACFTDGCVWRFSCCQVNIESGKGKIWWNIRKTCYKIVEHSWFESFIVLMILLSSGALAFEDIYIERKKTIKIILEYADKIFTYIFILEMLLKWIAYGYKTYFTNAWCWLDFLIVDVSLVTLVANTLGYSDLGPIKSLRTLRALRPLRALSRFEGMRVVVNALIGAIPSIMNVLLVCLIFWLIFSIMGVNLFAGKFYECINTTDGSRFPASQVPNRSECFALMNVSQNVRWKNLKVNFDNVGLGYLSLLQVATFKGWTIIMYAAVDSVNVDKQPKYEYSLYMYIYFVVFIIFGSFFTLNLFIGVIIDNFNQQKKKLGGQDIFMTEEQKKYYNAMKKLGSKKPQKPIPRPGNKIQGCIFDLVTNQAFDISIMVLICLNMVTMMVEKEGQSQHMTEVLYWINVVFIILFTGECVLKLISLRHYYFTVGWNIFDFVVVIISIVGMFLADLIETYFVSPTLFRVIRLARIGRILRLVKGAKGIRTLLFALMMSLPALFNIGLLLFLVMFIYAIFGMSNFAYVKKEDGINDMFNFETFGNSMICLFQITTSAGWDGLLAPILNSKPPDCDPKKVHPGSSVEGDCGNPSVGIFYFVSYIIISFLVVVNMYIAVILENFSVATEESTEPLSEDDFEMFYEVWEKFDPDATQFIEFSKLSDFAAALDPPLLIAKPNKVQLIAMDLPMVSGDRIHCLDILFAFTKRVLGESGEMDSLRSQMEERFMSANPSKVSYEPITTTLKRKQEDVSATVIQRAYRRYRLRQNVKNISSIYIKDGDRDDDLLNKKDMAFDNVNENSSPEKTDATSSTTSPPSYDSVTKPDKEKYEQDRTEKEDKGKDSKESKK
T1 sequence (Q07699 19-218 partner): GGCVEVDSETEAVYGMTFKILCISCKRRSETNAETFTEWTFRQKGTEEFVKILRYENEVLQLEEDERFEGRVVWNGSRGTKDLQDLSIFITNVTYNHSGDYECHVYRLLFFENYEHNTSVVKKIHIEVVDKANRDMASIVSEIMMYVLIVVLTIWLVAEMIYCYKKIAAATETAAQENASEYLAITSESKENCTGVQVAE

The assay addresses T1, hNav1.7 and the β1 subunit (Homo sapiens, UniProt Q15858).
T1 construct: expressed in transfected cells
The assay is described as follows: Tritiated compound competitive binding to membranes from cells heterologously expressing hNav1.7 and the β1 subunit (LBA). The following applies: competition with 100 pM [3H]compound, 18 h, room temperature; IC50 by 4 parameter logistic model. How it is done: Example 235 Tritiated Compound Binding to Membranes Isolated from Cells that Heterologously Express hNav1.7 and the β1 Subunit
Preparation of membranes containing recombinantly expressed sodium channels: Frozen recombinant cell pellets were thawed on ice and diluted to 4 times the cell pellet weight with ice cold 50 mM Tris HCl, pH 7.4 buffer. The cell suspensions were homogenized on ice using a motorized glass dounce homogeniser. Homogenates were further diluted 8.4 times with ice cold 50 mM Tris HCl, pH 7.4 buffer and then centrifuged at 200×g at 4° C. for 15 min. The supernatants were collected and centrifuged at 10000×g at 4° C. for 50 min. The pellets were then re-suspended in 100 mM NaCl, 20 mM Tris HCl, pH 7.4 buffer containing 1% v/v protease inhibitors (Calbiochem) and re-homogenized on ice. The homogenized membranes were then processed through a syringe equipped with a 26 gauge needle. Protein concentrations were determined by Bradford Assay and the membranes were stored at −80° C.
Radioligand Binding Studies:
Saturation experiments. A competitive NaV1.7 inhibitor having a methyl group was tritiated. Three tritiums were incorporated in place of methyl hydrogens to generate [^3H]compound. Binding of this radioligand was performed in 5 mL borosilicate glass test tubes at room temperature. Binding was initiated by adding membranes to increasing concentrations of [^3H]compound in 100 mM NaCl, 20 mM Tris HCl, pH 7.4 buffer containing 0.01% w/v bovine serum albumin (BSA) for 18 h. […] After 18 h, the reactants were filtered through GF/C glass fiber filters presoaked in 0.5% w/v polyethylene imine. […] [^3H]compound bound to filters was quantified by liquid scintillation counting.
Competitive Binding Experiments:
Binding reactions were performed in 96-well polypropylene plates at room temperature for 18 h. In 360 μL, membranes were incubated with 100 pM [^3H]compound and increasing concentrations of Test Compound. […] Reactions were transferred and filtered through 96-well glass fiber/C filter plates presoaked with 0.5% polyethylene imine. The filtered reactions were washed 5 times with 200 μL ice cold buffer containing 0.25% BSA. Bound radioactivity was determined by liquid scintillation counting.
Data Analysis: For saturation experiments, non-specific binding was subtracted from total binding to provide specific binding and these values were recalculated in terms of pmol ligand bound per mg protein. Saturation curves were constructed and dissociation constants were calculated using the single site ligand binding model: Beq=(Bmax*X)/(X+Kd), where Beq is the amount of ligand bound at equilibrium, Bmax is the maximum receptor density, Kd is the dissociation constant for the ligand, and X is the free ligand concentration. For competition studies percent inhibition was determined and IC50 values were calculated using a 4 parameter logistic model (% inhibition=(A+((B−A)/(1+((x/C)^D)))) using XLfit, where A and B are the maximal and minimum inhibition respectively, C is the IC50 concentration and D is the (Hill) slope.
Consider `Nc1cc([C@@H]2CCCCN2Cc2cc(F)c(S(=O)(=O)Nc3ncns3)cc2F)ccn1` (single isomer, unassigned) [Example 13], for which the “Nav1.7 (LBA)” value stood at 0.158 µM. In the case of `CN(Cc1ccccc1)[C@H]1CCOc2cc(S(=O)(=O)Nc3ncns3)c(F)cc21` [Example 89, (S)-4-(benzyl(methyl)amino)-6-fluoro-N-(1,2,4-thiadiazol-5-yl)chromane-7-sulfonamide] it was 0.096 µM; in that of `O=S(=O)(Nc1nccs1)c1cc2c(cc1F)[C@H](N1CC[C@@H](C(F)(F)F)C[C@H]1c1cccnc1)CCO2` [Example 193, (R)-6-fluoro-4-((2S,4R)-2-(pyridin-3-yl)-4-(trifluoromethyl)piperidin-1-yl)-N-(thiazol-2-yl)chroman-7-sulfonamide], 0.0103 µM.

For `O=S(=O)(Nc1ncns1)c1ccc2c(c1)OCC[C@@H]2N1CCC2(CC1)COC2` [Example 153, (S)-4-(2-oxa-7-azaspiro[3.5]nonan-7-yl)-N-(1,2,4-thiadiazol-5-yl)chromane-7-sulfonamide], the “Nav1.7 (LBA)” value stood at 5.5 µM. Under `O=S(=O)(Nc1ncns1)c1ccc2c(c1)OCC[C@@H]2N1CC[C@@H](C(F)(F)F)C[C@H]1c1ccc(F)c(Cl)c1` [Example 204, (S)-4-((2S,4R)-2-(3-chloro-4-fluorophenyl)-4-(trifluoromethyl)piperidin-1-yl)-N-(1,2,4-thiadiazol-5-yl)chroman-7-sulfonamide] stands 0.00398 µM; under `O=S(=O)(Nc1ncns1)c1ccc2c(c1)OCC[C@@H]2N1CCC(F)(F)C[C@H]1c1ccc(F)cc1` (single isomer, unassigned) [Example 134], 0.00295 µM; under `O=S(=O)(Nc1cscn1)c1cc2c(cc1F)[C@@H](N1CCCC[C@H]1c1ccccc1)CCO2` (single isomer, unassigned) [Example 99], 0.091 µM. Under `O=S(=O)(Nc1ncns1)c1cc(F)c(CN2CCC3(CC3)C[C@@H]2c2ccccc2)cc1F` (single isomer, unassigned) [Example 109] stands 1.57 µM.

For the compound `O=S(=O)(Nc1ncccn1)c1cc2c(cc1F)[C@@H](N1CCCC[C@H]1c1ccccc1)CCO2` (single isomer, unassigned) [Example 94], the “Nav1.7 (LBA)” value is 0.423 µM.

`O=S(=O)(Nc1ncns1)c1ccc2c(c1)OCC[C@@H]2N1CCN(CC(F)(F)F)C[C@H]1c1ccccc1` (single isomer, unassigned) [Example 82]: the “Nav1.7 (LBA)” value amounted to 0.0156 µM. In the case of `CS(=O)(=O)N1CCN([C@H]2CCOc3cc(S(=O)(=O)Nc4ncns4)ccc32)[C@H](c2ccc(F)cc2)C1` [Example 226, (S)-4-((R)-2-(4-fluorophenyl)-4-(methylsulfonyl)piperazin-1-yl)-N-(1,2,4-thiadiazol-5-yl)chromane-7-sulfonamide] it was 0.0305 µM; in that of `O=S(=O)(Nc1ncns1)c1ccc2c(c1)CCC[C@@H]2N1CCCC[C@@H]1c1ccccc1` (single isomer, unassigned) [Example 51], 0.482 µM; in that of `C[C@H](c1ccc(S(=O)(=O)Nc2ncns2)cc1Cl)N1CCCC[C@H]1c1ccccc1` (single isomer, unassigned) [Example 61], 3.98 µM. As for `O=S(=O)(Nc1ncns1)c1ccc2c(c1)OCC[C@@H]2N1CCN(CCF)C[C@H]1c1ccc(F)cc1` [Example 223, (S)-4-((R)-4-(2-fluoroethyl)-2-(4-fluorophenyl)piperazin-1-yl)-N-(1,2,4-thiadiazol-5-yl)chromane-7-sulfonamide], the “Nav1.7 (LBA)” value worked out at 0.125 µM. Under `O=S(=O)(Nc1ncns1)c1ccc2c(c1)OCC[C@@H]2NC(CCC(F)(F)F)c1ccccc1` (stereo partly drawn) [Example 207, (4S)—N-(1,2,4-thiadiazol-5-yl)-4-((4,4,4-trifluoro-1-phenylbutyl)amino)chroman-7-sulfonamide] stands 0.039 µM; under `O=S(=O)(Nc1cscn1)c1cc2c(cc1F)[C@H](N1CCCC[C@H]1c1ccccc1)CCO2` (single isomer, unassigned) [Example 98], 1.79 µM; under `O=S(=O)(Nc1nccs1)c1cc2c(cc1F)[C@H](N1CC[C@@H](C(F)(F)F)C[C@H]1c1cn[nH]c1)CCO2` [Example 199, (R)-4-((2S,4R)-2-(1H-pyrazol-4-yl)-4-(trifluoromethyl)piperidin-1-yl)-6-fluoro-N-(thiazol-2-yl)chroman-7-sulfonamide], 0.11 µM. In the case of `O=S(=O)(Nc1ncns1)c1ccc2c(c1)OCC[C@@H]2N1CCN(CC(F)(F)F)C[C@H]1c1ccc(F)cc1` [Example 219, (S)-4-((R)-2-(4-fluorophenyl)-4-(2,2,2-trifluoroethyl)piperazin-1-yl)-N-(1,2,4-thiadiazol-5-yl)chromane-7-sulfonamide] it was 0.00778 µM. In the case of `O=S(=O)(Nc1ncns1)c1cc(Cl)c(CN2CCCCC2c2ccccc2)cc1F` (stereo not shown) [Example 68, 5-chloro-2-fluoro-4-((2-phenylpiperidin-1-yl)methyl)-N-(1,2,4-thiadiazol-5-yl)benzenesulfonamide] it was 0.334 µM. Regarding `C[C@H]1CC[C@@H](c2ccccc2)N(Cc2cc(F)c(S(=O)(=O)Nc3ncns3)cc2F)C1` (single isomer, unassigned) [Example 21], the “Nav1.7 (LBA)” value was 0.672 µM.

For the compound `Cn1nccc1[C@H]1C[C@@H](C(F)(F)F)CCN1[C@H]1CCOc2cc(S(=O)(=O)Nc3ncns3)ccc21` (single isomer, unassigned) [Example 125], the “Nav1.7 (LBA)” value is 0.00448 µM. In the case of `O=S(=O)(Nc1nccs1)c1cc2c(cc1F)[C@@H](N1CC[C@@H](C(F)(F)F)C[C@H]1c1ccc(F)c(F)c1)CCO2` [Example 198, (S)-4-((2S,4R)-2-(3,4-difluorophenyl)-4-(trifluoromethyl)piperidin-1-yl)-6-fluoro-N-(thiazol-2-yl)chroman-7-sulfonamide] it was 0.000649 µM; in that of `C[C@@H]1CC[C@H](c2ccccc2)N(Cc2cc(F)c(S(=O)(=O)Nc3ncns3)cc2F)C1` (single isomer, unassigned) [Example 20], 1.56 µM. Under `CCN1CCN([C@H]2CCOc3cc(S(=O)(=O)Nc4ncns4)ccc32)[C@H](c2ccc(F)cc2)C1` [Example 224, (S)-4-((R)-4-ethyl-2-(4-fluorophenyl)piperazin-1-yl)-N-(1,2,4-thiadiazol-5-yl)chromane-7-sulfonamide] stands 0.174 µM; under `C[C@H](c1cc(F)c(S(=O)(=O)Nc2ncns2)cc1F)N1CCCC[C@H]1c1ccccc1` (single isomer, unassigned) [Example 18], 1.38 µM. For `O=S(=O)(Nc1ncns1)c1cc2c(cc1F)[C@H](N1CCCC[C@H]1c1ccccc1)CCO2` (single isomer, unassigned) [Example 85], the “Nav1.7 (LBA)” value was 0.218 µM. In the case of `O=S(=O)(Nc1nccs1)c1cc2c(cc1F)[C@@H](N1CC[C@@H](C(F)(F)F)C[C@H]1c1ccc(F)cc1)CCO2` (single isomer, unassigned) [Example 92] it was 0.000828 µM. In the case of `CS(=O)(=O)[C@@H]1CCN([C@H]2CCOc3cc(S(=O)(=O)Nc4ncns4)ccc32)[C@H](c2ccc(F)cc2)C1` [Example 161, (S)-4-((2S,4R)-2-(4-fluorophenyl)-4-(methylsulfonyl)piperidin-1-yl)-N-(1,2,4-thiadiazol-5-yl)chroman-7-sulfonamide], the “Nav1.7 (LBA)” value turned out to be 0.00853 µM. Take `O=S(=O)(Nc1ncns1)c1ccc2c(c1)OCC[C@H]2N1CCCC[C@H]1c1ccc(F)cc1` (single isomer, unassigned) [Example 77]: the “Nav1.7 (LBA)” value was determined as 0.198 µM. Under `O=S(=O)(Nc1ncns1)c1ccc2c(c1)OCC[C@@H]2N1CC[C@@H](CF)C[C@H]1c1ccc(F)cc1` [Example 182, (S)-4-((2S,4R)-4-(fluoromethyl)-2-(4-fluorophenyl)piperidin-1-yl)-N-(1,2,4-thiadiazol-5-yl)chroman-7-sulfonamide] stands 0.00399 µM; under `O=S(=O)(Nc1ncns1)c1cc2c(cc1F)[C@@H](N1CCCC[C@@H]1c1ccc(F)cc1)CCO2` (racemic) [Example 86, (±)-(S)-6-fluoro-4-((R)-2-(4-fluorophenyl)piperidin-1-yl)-N-(1,2,4-thiadiazol-5-yl)chromane-7-sulfonamide], 0.00496 µM.
